# Laboratory results reported in article PMC2099433, “The binding site for neohesperidin dihydrochalcone at the human sweet taste receptor” (BMC Structural Biology, 2007).
# Residue numbers refer to the chain shown, from its start. Where a SMILES comes first, the peptide text is derived from it.
# Key:
# [1] = target: T1, hTAS1R2 + hTAS1R3 F778A^6.51 (Homo sapiens, UniProt Q7RTX0+Q8TE23, F778A); assay: Calcium response (FLIPR), hTAS1R3 mutant coexpressed with hTAS1R2; type: cell-based; settings: variant F778A^6.51; for Emax: read-out: maximal signal (% of wt)
# T1 construct: expressed in transfected cells; host or cells: HEK293T cells stably expressing G16Gust44
# T1 sequence (Q8TE23 20-839): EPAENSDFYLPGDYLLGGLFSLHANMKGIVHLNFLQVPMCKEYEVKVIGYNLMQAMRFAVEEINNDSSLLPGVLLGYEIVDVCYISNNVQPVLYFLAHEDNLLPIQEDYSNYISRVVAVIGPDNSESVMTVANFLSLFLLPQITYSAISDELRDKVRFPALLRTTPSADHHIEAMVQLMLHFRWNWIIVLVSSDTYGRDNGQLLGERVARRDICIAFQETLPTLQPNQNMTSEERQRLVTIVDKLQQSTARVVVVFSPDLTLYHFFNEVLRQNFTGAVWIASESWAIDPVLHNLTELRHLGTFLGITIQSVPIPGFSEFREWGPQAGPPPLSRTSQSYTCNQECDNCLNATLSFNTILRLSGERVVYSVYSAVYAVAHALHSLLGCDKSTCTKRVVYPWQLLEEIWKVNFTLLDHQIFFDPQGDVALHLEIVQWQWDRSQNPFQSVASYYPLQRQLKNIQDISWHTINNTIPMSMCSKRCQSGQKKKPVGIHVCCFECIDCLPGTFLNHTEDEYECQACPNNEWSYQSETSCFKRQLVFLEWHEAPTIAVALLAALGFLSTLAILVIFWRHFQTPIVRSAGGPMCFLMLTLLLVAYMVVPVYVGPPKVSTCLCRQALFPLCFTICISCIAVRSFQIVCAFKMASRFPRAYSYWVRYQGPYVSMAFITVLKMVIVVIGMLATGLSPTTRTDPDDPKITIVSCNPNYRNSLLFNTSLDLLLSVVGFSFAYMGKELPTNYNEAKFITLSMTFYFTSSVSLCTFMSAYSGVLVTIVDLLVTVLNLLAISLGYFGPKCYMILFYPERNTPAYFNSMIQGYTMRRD
# T1 sequence (Q7RTX0 21-852 F778A): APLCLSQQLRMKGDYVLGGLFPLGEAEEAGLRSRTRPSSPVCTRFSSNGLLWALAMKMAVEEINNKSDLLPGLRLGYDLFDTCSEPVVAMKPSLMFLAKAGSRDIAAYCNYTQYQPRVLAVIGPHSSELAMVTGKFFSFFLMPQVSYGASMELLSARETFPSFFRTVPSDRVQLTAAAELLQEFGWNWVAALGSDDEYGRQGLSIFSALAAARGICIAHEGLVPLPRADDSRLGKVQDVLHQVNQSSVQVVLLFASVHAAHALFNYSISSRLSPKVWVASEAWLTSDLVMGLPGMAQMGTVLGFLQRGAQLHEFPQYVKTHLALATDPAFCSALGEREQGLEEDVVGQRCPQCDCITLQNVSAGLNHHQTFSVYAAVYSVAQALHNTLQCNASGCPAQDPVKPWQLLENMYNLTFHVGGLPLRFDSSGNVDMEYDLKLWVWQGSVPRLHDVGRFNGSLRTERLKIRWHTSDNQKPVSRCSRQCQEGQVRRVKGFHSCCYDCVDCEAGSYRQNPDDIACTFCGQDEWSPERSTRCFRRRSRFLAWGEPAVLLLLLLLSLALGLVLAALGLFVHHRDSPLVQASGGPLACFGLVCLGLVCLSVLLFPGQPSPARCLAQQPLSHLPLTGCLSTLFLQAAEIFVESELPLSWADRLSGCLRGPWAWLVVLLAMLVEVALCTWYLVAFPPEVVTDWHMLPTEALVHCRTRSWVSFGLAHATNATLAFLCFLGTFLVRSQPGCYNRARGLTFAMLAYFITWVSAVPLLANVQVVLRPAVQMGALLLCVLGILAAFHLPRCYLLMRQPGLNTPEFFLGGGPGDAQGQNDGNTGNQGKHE
# Procedure, shortened: (§1)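 Each mutant receptor pair was expressed transiently in G16Gust44-expressing HEK293T cells; stimuli dissolved in C1 solution triggered calcium responses, recorded by fluorometric imaging and scaled to baseline fluorescence (ΔF/F) after mock correction, from at least three experiments run in duplicate.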
# [2] = target: T2, hTAS1R2 + hTAS1R3 H641A^3.33 (Homo sapiens, UniProt Q7RTX0+Q8TE23, H641A); assay: as above; type: cell-based; settings: variant H641A^3.33; for Emax: read-out: maximal signal (% of wt)
# T2 construct: expressed in transfected cells; host or cells: HEK293T cells stably expressing G16Gust44
# T2 sequence (Q8TE23 20-839): T1 sequence (Q8TE23 20-839)
# T2 sequence (Q7RTX0 21-852 H641A): T1 sequence (Q7RTX0 21-852 F778A) with H621A, A758F
# Procedure, shortened: as §1
EC50 [1],Emax [1],EC50 [2],Emax [2],SMILES
1500 ± 400 µM,50 ± 18%,1200 ± 400 µM,57 ± 22%,"COc1ccc(CCC(=O)c2c(O)cc(O[C@@H]3O[C@H](CO)[C@@H](O)[C@H](O)[C@H]3O[C@@H]3O[C@@H](C)[C@H](O)[C@@H](O)[C@H]3O)cc2O)cc1O [NHDC, neohesperidin dihydrochalcone]"
1200 ± 100 µM,80 ± 80%,1800 ± 400 µM,79 ± 70%,COC(=O)[C@H](Cc1ccccc1)NC(=O)[C@@H](N)CC(=O)O [aspartame] (HELM PEPTIDE1{D.F.[CO[*:1]]}$$$$V2.0)
